Results as given in patent US7348328B2, “MCH antagonists for the treatment of obesity” (Schering Corporation, priority 2001, dated 2008).
pKi: −log10 of the molar value. Read-outs that look alike come from different tables or passages of the source.

Biological target: T1, MCH receptor (Homo sapiens, UniProt Q99705)
T1 construct: expressed in transfected cells; host or cells: CHO cells (membranes)
Test: MCH Receptor Binding Assay
Protocol: MCH Receptor Binding Assay:
Membranes from CHO cells expressing the MCH receptor were prepared by lysing cells with 5 mM HEPES for 15 min at 4C. Cell lysates were centrifuged ([…], 15 min) and the pellet was resuspended in 5 mM HEPES. For each 96-well plate (Microlite, Dynex Technologies), 1 mg of cell membranes were incubated with 10 mg of wheat germ agglutinin SPA beads (Amersham) for 5 min at 4 C. in a volume of 10 ml of binding buffer (25 mM HEPES, 10 mM MGCl2, 10 mM NaCl, 5 mM MnCl2, 0.1% BSA). The membrane/bead mixture was centrifuged (1500×g, 3.5 min), the supernatant was aspirated, and the pellet was resuspended in 10 ml binding buffer. The centrifugation, aspiration and resuspension were then repeated. […] Nonspecific binding was determined by including 1 μM MCH in the binding reaction. The binding reaction was incubated at room temperature for 2 h. Plates were then analyzed in a TOPCOUNT microplate scintillation counter (Packard). Data was analyzed and Ki values were determined using GraphPad Prim.

[1] = Table 1b, preferred compounds, read-out: MCH R1 Ki
[2] = Binding Activity, membranes from CHO cells expressing the MCH receptor, [125I]-MCH, read-out: MCH Ki

T1 sequence (Q99705 whole entry): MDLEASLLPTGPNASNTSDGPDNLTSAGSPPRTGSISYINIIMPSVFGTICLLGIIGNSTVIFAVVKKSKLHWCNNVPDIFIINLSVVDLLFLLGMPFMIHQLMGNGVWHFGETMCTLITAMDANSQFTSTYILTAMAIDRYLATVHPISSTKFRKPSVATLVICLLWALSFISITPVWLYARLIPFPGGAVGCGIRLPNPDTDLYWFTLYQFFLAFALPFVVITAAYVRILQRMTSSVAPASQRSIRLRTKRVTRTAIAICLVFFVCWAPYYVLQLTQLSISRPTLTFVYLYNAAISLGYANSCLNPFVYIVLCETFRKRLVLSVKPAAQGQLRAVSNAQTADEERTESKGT

| SMILES | pKi [1] | pKi [2] |
| --- | --- | --- |
| CC(C)N(CCF)CCN(C(=O)Nc1cc(Cl)nc(Cl)c1)[C@@H]1CC[C@@]2(c3cccc(C#N)c3)CC2C1 (some centres unmarked) | 7.99 |  |
| CC(=O)Nc1cccc([C@@]23CC[C@@H](N(CCN4CCCC4)C(=O)Nc4ccc(F)c(C(F)(F)F)c4)CC2C3)c1 (some centres unmarked) | 8.34 |  |
| CC(C)N(CCN(C(=O)Nc1cc(Cl)nc(Cl)c1)[C@@H]1CC[C@@]2(c3cccc(C#N)c3)CC2C1)C(C)CO (some centres unmarked) | 8.80 |  |
| N#Cc1cccc([C@@]23CC[C@@H](N(CCN4C[C@H]5C[C@H]5[C@H]4CO)C(=O)Nc4cc(Cl)nc(Cl)c4)CC2C3)c1 (some centres unmarked) | 8.52 |  |
| N#Cc1cccc(C2=CCC(N(CCN3CCCC3)C(=O)Nc3ccc(F)c(C(F)(F)F)c3)CC2)c1 (centres unmarked) | 8.57 |  |

Continued, values first:

| pKi [1] | pKi [2] | SMILES |
| --- | --- | --- |
| 8.32 |  | CC(=O)Nc1cccc(C23CC[C@@H](N(CCN4CC[C@@H](O)C4)C(=O)Nc4ccc(F)c(C(F)(F)F)c4)CC2C3)c1 (some centres unmarked) |
| 8.00 |  | N#Cc1cccc([C@]23CC[C@H](N(CC4CCN(CC5CC5)CC4)C(=O)Nc4ccc(F)c(Cl)c4)CC2C3)c1 (some centres unmarked) |
|  | 8.39 | N#Cc1cccc([C@]23CC[C@@H](N(CCN4CCCCC4)C(=O)Nc4ccc(F)c(Cl)c4)[C@H]2C3)c1 [Example 194] |
| 8.55 |  | CC(C)N(CCN(C(=O)Nc1ccc(F)c(F)c1)C1CC[C@]2(c3cccc(C#N)c3)CC2C1)C(C)C (some centres unmarked) |
| 8.21 |  | N#Cc1cccc([C@@]23CC[C@@H](N(CCN4CC[C@@H](O)C4)C(=O)Nc4ccc(F)c(C(F)(F)F)c4)CC2C3)c1 (some centres unmarked) [drawing 651] |
|  | 7.96 | N#Cc1cccc([C@]23CC[C@@H](N(CCN4CC[C@@H](O)C4)C(=O)Nc4ccc(F)c(C(F)(F)F)c4)[C@H]2C3)c1 [Example 198] |
